According to PMC8143339, “PK/PD Modeling of the PDE7 Inhibitor—GRMS-55 in a Mouse Model of Autoimmune Hepatitis” (Pharmaceutics, 2021):
Converted amounts (≈) assume the structure as drawn. Like-named read-outs stand apart in the source and are kept apart here.

How the values were obtained:
PDE7A [1] = experiment: in vitro PDE7A inhibition assay; type: biochemical; conditions: ratio of IC50 values
ConA-induced hepatitis = experiment: Pharmacodynamic study and PK/PD/disease progression modeling in ConA-induced hepatitis; type: in vivo, female BALB/c mice; conditions: for IC50: Mus musculus, serum concentration, PK/PD model, IP 50 or 100 mg/kg, ConA 20 mg/kg IV
Experimental: ConA was dissolved in sterile saline (2 mg·mL^−1). The studied compounds (GRMS-55, rolipram, and BRL-50481) were dissolved in a mixture of DMSO, PEG 400, and water for injection at a ratio of 25:25:50 (v/v/v). Mice were given an IP injection of the investigated compounds or the corresponding volume of vehicle alone and, thirty minutes later, intravenously (IV) administered with ConA solution. An additional control group received vehicle alone IP instead of the studied compounds followed by IV injection of sterile saline. ConA was given at a dose of 20 mg·kg^−1. Mice were exsanguinated at several time points post-ConA injection. Blood samples were allowed to clot for 0.5 h at room temperature and then centrifuged at 3000× g for 10 min to obtain the serum, which was stored at −20 °C until further analysis.
The influence of PDE inhibitors on the levels of inflammatory mediators and transaminases in ConA-treated mice was investigated in two separate experiments. In the preliminary study, the animals were pretreated IP with GRMS-55 at a dose of 50 mg·kg^−1, the PDE4-selective inhibitor rolipram at a dose of 10 mg·kg^−1, or the PDE7-selective inhibitor BRL-50481 at a dose of 50 mg·kg^−1. Doses of the investigated compounds were chosen based on the results of previous studies. Subsequently, mice were given an IV injection of ConA and sacrificed at 8 h following mitogen dosing. The levels of TNF-α, IL-6, and IFN-γ and the activities of ALT and AST in the mouse serum were measured. This preliminary experiment allowed comparing the activity of the studied PDE inhibitors in this AIH model and helped to select the doses of GRMS-55 for a subsequent pharmacodynamic study. In the final pharmacodynamic experiment, GRMS-55 was administered at two dose levels (50 and 100 mg·kg^−1) followed by ConA administration at a dose of 20 mg·kg^−1. Animals were sacrificed at various time points post-ConA dosing (1, 2, 4, 8 and 24 h). The levels of TNF-α, IL-1β, IL-4, IL-6, IL-10, IL-12, IL-17A, and IFN-γ were measured using a multiplex Luminex assay. In addition, the activities of ALT and AST in the mouse serum were assessed. The concentration–time profiles of the selected biomarkers obtained in this experiment combined with the results of pharmacokinetic analysis allowed the development of a semi-mechanistic PK/PD/disease progression model and the investigation of concentration–effect relationships of GRMS-55.
The serum samples from the preliminary pharmacological study were analyzed using ELISA tests according to the protocols provided by the manufacturers. The TNF-α concentrations were measured using the Mouse TNF-α Quantikine ELISA Kit (R&D Systems, Minneapolis, MN, USA), while the concentrations of IL-6 and IFN-gamma were quantified by ELISA kits manufactured by Cloud-Clone Corp. (Houston, TX, USA). The absorbance of samples was measured on a POLARstar Omega multi-mode microplate reader (BMG LABTECH, Ortenberg, Germany) set at 450 nm wavelength. TNF-α, IL-1β, IL-6, IL-4, IL-10, IL-12, IL-17A, and IFN-γ serum levels in samples from pharmacodynamic experiment were determined by a premixed Magnetic Luminex Assay (R&D Systems, Inc., Minneapolis, MN, USA) according to the manufacturer’s protocol. Serum AST and ALT activities were quantified on a chemistry analyzer BS-800 (Shenzhen Mindray Bio-medical Electronics Co., Ltd., Shenzhen, China).
A PK/PD/disease progression model illustrated in Figure 1 was developed considering the mechanism of action of the investigated compound and the mechanisms of progression of ConA-induced hepatitis, i.e., the subsequent stages leading to the production and release of relevant biomarkers.
Moreover, possible interrelationships and interactions among the measured biomarkers were considered during the model building process. […]

PDE7A [2] = conditions: reported in previous publication; read-out: IC50 for PDE7A inhibition; cited from earlier work

IC50 (ConA-induced hepatitis; read-out: IC50_IFN-γ, concentration resulting in 50% of Imax of IFN-γ): 12.3 µg/mL (≈ 24.4 µM) | IC50 (ConA-induced hepatitis; read-out: IC50_IL-6, concentration resulting in 50% of Imax of IL-6): 13.4 µg/mL (≈ 26.6 µM) | IC50 (ConA-induced hepatitis; read-out: IC50_TNF-α, concentration resulting in 50% of Imax of TNF-α): 7.97 µg/mL (≈ 15.8 µM)
Compound: Cn1c(=O)c2c(nc(NCCc3ccccc3)n2CCCC(=O)NN=Cc2ccccc2O)n(C)c1=O [GRMS-55, 4-(1,3-dimethyl-2,6-dioxo-8-(phenethylamino)-1,2,3,6-tetrahydro-7H-purin-7-yl)-N′-(2-hydroxybenzylidene)butanehydrazide]
times weaker PDE7A inhibitor than BRL-50481 (PDE7A [1]): 3.5 | effect on serum IL-4 level (ConA-induced hepatitis; 1, 2 and 8 h post-ConA, both dose groups): decreased | effect on ALT and AST activities (ConA-induced hepatitis; 50 or 100 mg/kg IP): significant and prominent decrease | effect on serum IL-12 level (ConA-induced hepatitis; 4 h post-ConA, 50 and 100 mg/kg IP): significantly decreased | effect on serum IL-1β level (ConA-induced hepatitis; 8 h post-ConA, 50 and 100 mg/kg IP): significantly decreased | effect on serum IL-17A concentration (ConA-induced hepatitis; 8 h post-ConA, both dose levels): decreased | IC50 (PDE7A [2]): 7.3 µM
